According to patent publication US8236778B2, “Synergistic 5′-methylthioadenosine combinations” (Proyecto de Biomedicina Cima, S.L., priority 2008, dated 2012):

Columns and labels:
[1] = test system: acute EAE model; test: EAE disease severity score in MS animal model (acute EAE model, rMOG35-55 immunization); type: in vivo; conditions: female C57/bl6 mice, daily i.p. treatment starting after immunization, followed to day 31; (27.84 mg/kg), GA 0.1 mg/mouse/day; n=5 per group
[2] = test system: acute Experimental Autoimmune Encephalomyelitis (EAE); conditions: model of Multiple Sclerosis; cited from earlier work
[3] = wide range of doses; cited from earlier work
[4] = test system: Chronic-Relapsing EAE (RR-EAE); conditions: model of Multiple Sclerosis; cited from earlier work
[5] = test system: MS relapses; conditions: current GA therapy; cited from earlier work

Row | Compound | course / severity of the disease (EAE) [1] | effect on acute EAE [2] | side effects [3] | effect on Chronic-Relapsing EAE [4] | efficacy in preventing new relapses in MS [5]
1 | CSC[C@H]1O[C@@H](n2cnc3c(N)ncnc32)[C@H](O)[C@@H]1O [MTA, 5′-methylthioadenosine] | course of the disease with intermediate intensity | capable of preventing | without side effects | ameliorates | 
2 | L-glutamic acid polymer with L-alanine, L-lysine and L-tyrosine, acetate (salt) [GA, reference compound] | course of the disease with intermediate intensity |  |  |  | not more than 25%
